The subject of assay [1] is Nur77 expression in 22RV1 cells. Description: Expression of Nur77 in prostrate cancer cells (FIG. 5). The class given is cell-based. The following applies: prostrate cancer cells (22RV1 cells), to various extents.
In assay [2] the test system is Nur77 expression in the seminal vesicles. The following applies: orchiectomized (ORX) rats, FIG. 6, to various extents.

Molecules are shown by their SMILES.

For the compound `C[C@]12CCC(=O)C[C@@H]1CC[C@@H]1[C@@H]2CC[C@]2(C)[C@@H](O)CC[C@@H]12` [DHT, dihydrotestosterone], the “expression of Nur77” value in assay [1] is on record as “can be controlled”; in assay [2], “can be modulated”.

The values are drawn from patent US7521207B2, “Rhesus monkey Nur77” (Merck & Co., Inc., priority 2005, dated 2009).
